The values below come from US4578390A, “Hydroxybenzylamino derivatives as anti-inflammatory agents” (Merck & Co., Inc., priority 1983, dated 1986).

Test [1] relates to inflammatory responses elicited by topically applied phorbol myristate acetate (PMA) or topically applied arachidonic acid (AA). Briefly: Topical mouse ear assay (TME), edema. It counts as in vivo. The note with it: PMA or AA challenge (which not stated), N=5 mice/group. The method, then:
TABLE II Topical Mouse Ear Assay
Method: The right ears of mice (5 mice per group) were treated topically with either […] or 1000 μg AA alone or with the test compound in 25 μl of vehicle. The vehicle was water/pyridine/acetone (1:2:97). A control group of mice received the vehicle only. The mice were allowed food and water ad libitum during the treatment period; 2 hours for AA and 4 hours for PMA. The mice were sacrificed by cervical dislocation and a 6 mm diameter disc of tissue punched from both the treated and untreated ears. The tissue biopsies were immediately weighed and the weight increase of the treated ear relative to the weight of the untreated ear determined.
All of the data are expressed as the mean±SEM, N=5 mice/group.

In test [2] the test system is erythema induced on the skin of guinea pigs by UV radiation. Briefly: U.V. erythema assay. Format: in vivo. The note with it: topical, mean of 3 animals. On the procedure:
The U.V. erythema assay by which topical anti-inflammatory activity is determined, is based on the ability of the compounds of Formula I to inhibit the erythema induced on the skin of guinea pigs by UV radiation. It has been substantiated by recent studies that prostaglandin synthesis and the release thereof may be the primary process involved in the production of erythema. A protocol of the assay and some results thereof are summarized below in Table III.
Guinea pigs were depilated and stabilized for 30 minutes. Following anesthesia with Nembutal (35 mg/kg), they were exposed to a U.V. lamp for 45 minutes at a distance of seven inches from the abdominal surface. Compound was applied topically (seven applications in a total of 0.1 ml vehicle) 15 minutes post exposure. […]
Vehicle 1774--85% EtOH, 12% Propylene Glycol, 3% Methyl Salicylate
A numerical value 0-5 was assigned to the degree of erythema observed under standard lighting conditions. Drug effect on the developing erythema was calculated as follows: [formula] Results: % Inhibition of Erythema by (a) N-(2-hydroxy-5-methoxybenzyl)aniline

In test [3] the test system is inflammatory responses elicited by topically applied phorbol myristate acetate (PMA) or topically applied arachidonic acid (AA). The note with it: previously established; cited from earlier work.

Each structure is given as a SMILES string.

Turning to `COc1ccc(O)c(CNc2nc3ccccc3[nH]2)c1` [C, 2-(2-hydroxy-5-methoxybenzylamino)benzimidazole], the “Edema (% inhibition)” value in test [1] (dosage 300 μg) is listed as 80%.

As to `COc1ccc(O)c(CNc2cccs2)c1` [A, 2-(2-hydroxy-5-methoxybenzylamino)thiophene], in test [1] (dosage 300 μg), the “Edema (% inhibition)” value was determined as 77%.

On to `COc1ccc(O)c(CNc2ccccc2)c1` [N-(2-hydroxy-5-methoxybenzyl)aniline], for which, in test [2] (0.1 mg), the “% Inhibition of Erythema, 2 Hr.” value is 19.3%; the “% Inhibition of Erythema, 3 Hr.” value came out at 16.7%; the “% Inhibition of Erythema, 4 Hr.” value is reported as 15.0%; the “% Inhibition of Erythema, 6 Hr.” value was 6.7%. The “% Inhibition of Erythema, 24 Hr.” value in test [2] (0.1 mg) is 0%. In test [2] (0.3 mg), the “% Inhibition of Erythema, 2 Hr.” value is 55.3%; the “% Inhibition of Erythema, 3 Hr.” value is 50.0%; the “% Inhibition of Erythema, 4 Hr.” value is listed as 46.7%; the “% Inhibition of Erythema, 6 Hr.” value stood at 35.0%. The “% Inhibition of Erythema, 24 Hr.” value in test [2] (0.3 mg) stood at 0%. Further, in test [2] (1.0 mg), the “% Inhibition of Erythema, 2 Hr.” value was 80.3%; the “% Inhibition of Erythema, 3 Hr.” value turned out to be 91.7%; the “% Inhibition of Erythema, 4 Hr.” value is 76.7%; the “% Inhibition of Erythema, 6 Hr.” value came to 63.3%. Moreover, in test [2] (1.0 mg), the “% Inhibition of Erythema, 24 Hr.” value is given as 26.7%. Also, in test [2] (3.0 mg), the “% Inhibition of Erythema, 2 Hr.” value is given as 100%; the “% Inhibition of Erythema, 3 Hr.” value is 100%; the “% Inhibition of Erythema, 4 Hr.” value turned out to be 63.3%; the “% Inhibition of Erythema, 6 Hr.” value was determined as 43.3%. Also, the “% Inhibition of Erythema, 24 Hr.” value in test [2] (3.0 mg) turned out to be 33.3%.

For `COc1ccc2c(c1)c(CC(=O)O)c(C)n2C(=O)c1ccc(Cl)cc1` [Indomethacin, reference compound], the “Edema (% inhibition)” value in test [1] (dosage 1000 μg) is reported as 88%. Besides, in test [3], the “activity in the topical mouse ear assay” value was “active”.

For the compound `C[C@@H]1C[C@H]2[C@@H]3CCC4=CC(=O)C=C[C@]4(C)[C@@]3(F)[C@@H](O)C[C@]2(C)[C@@]1(O)C(=O)CO` [Dexamethasone, reference compound], the “Edema (% inhibition)” value in test [1] (dosage 150 μg) was determined as 100%. In addition, the “activity in the topical mouse ear assay” value in test [3] is “active”.

As for `COc1ccc(O)c(CNc2cccc3nsnc23)c1` [B, 4-(2-hydroxy-5-methoxybenzylamino)-2,1,3-benzothiadiazole], the “Edema (% inhibition)” value in test [1] (dosage 300 μg) stood at 44%.
